# From EP0314528B1, “Article for the controlled release and delivery of substances to animal tissues” (HERCON LABORATORIES CORPORATION, priority 1987, dated 1989)
# Assays:
# [1] = test system: human subject; test: Contact irritant dermatitis to RO 22-1327 patches with incorporated fluocinonide; format: in vivo; settings: 1.0% fluocinonide incorporated into the RO 22-1327 patch
# Excerpt: (§1) The Grading System for this example is as follows: +/- faint, or spotty, pink color within test site; 1 uniform pink color covering all of test site; 2 uniform pink to red color covering all of test site; 3 uniform bright red color covering all of test site; 4 uniform bright red color covering all of test side with edema, blisters, or weeping.
# Objective - To block the contact irritant dermatitis observed following application of RO 22-1327 patches to the skin through the incorporation of fluocinonide in the patch. Materials - One formulation of the antihypertensive drug RO 22-1327 was used, in which either 0%, 0.1%. 1.0% or 5% fluocinonide was incorporated. Methods - Four patches containing RO 22-1327 and fluocinonide at either 0%, 0.1%, 1.0%. or 5.0% were applied to the upper arms (two per arm) of a single human subject not previously exposed to this drug. The patches were removed at 8 hours and the sites observed for signs of dermatitis immediately and 16 hours later. In a second test. one RO 22-1327 patch containing 1.0% fluocinonide was applied to the upper arm of the same human subject as above and removed after 24 hours. The site was examined immediately for signs of dermatitis.
# [2] = test system: human subject previously sensitized to fluphenazine; test: Contact allergic dermatitis to fluphenazine patches with incorporated fluocinonide, sensitized subject; format: in vivo; settings: 1% or 5% fluocinonide incorporated in the fluphenazine patch
# Excerpt: as §1
# Objective - To block contact dermatitis observed following application of fluphenazine patches to the skin through incorporation of fluocinonide in the patch. Materials - One formulation of the anti-psychotic drug fluphenazine was used in which either 0%, 1% or 5% fluocononide was incorporated. Thus, the following formulations were prepared: […]
# Methods - Three patches containing fluphenazine and fluocinonide at either 0%, 1% or 5% of fluocinonide were applied to the upper arm of a single human subject previously sensitized to fluphenazine. The patches were removed at 48 hours and the sites observed for signs of allergic dermatitis immediately and at 72 and 96 hours. […]
# [3] = test system: human subject previously sensitized to clonidine; test: Contact allergic dermatitis to clonidine patches with incorporated fluocinonide, sensitized subject; format: in vivo; settings: 2% fluocinonide incorporated in the clonidine patch
# Excerpt: as §1
# (§2) Objective - To block the contact allergic dermatitis which occurs following application of clonidine patches to the skin through incorporation of fluocinonide in the patches. Materials - One formulation of the anti-hypertensive drug clonidine was used in which either 0% or 2% fluocinonide was incorporated. A second formulation containing no clonidine was also tested. Thus, the following formulations were prepared: […]
# Methods - Two patches containing clonidine and either 0% or 2% fluocinonide were applied to the upper back of a single human subject previously sensitized to clonidine. A third patch containing no clonidine and no fluocinonide was also applied as a placebo. The patches were removed after 7 days and the sites read immediately and on the 8th day as well. […]
# [4] = test system: human subject previously sensitized to trifluoperazine; test: Contact allergic dermatitis to trifluoperazine patches with incorporated fluocinonide, sensitized subject; format: in vivo; settings: 2% fluocinonide incorporated in the trifluoperazine patch
# Excerpt: as §1
# as §2, with “trifluoperazine” for “clonidine”, “through the” for “through”, “tranquilizer” for “anti-hypertensive”, “incorporated.” for “incorporated. A second formulation containing no clonidine was also tested.”
# Methods - Two patches containing trifluoperazine and either 0% or 2% fluocinonide were applied to the upper arm of a single human subject previously sensitized to trifluoperazine. The patches were removed after two days and the sites read immediately and 24 and 48 hours later as well. […]
# [5] = test system: human subject; test: Contact irritant dermatitis to guanfacine patches with incorporated hydrocortisone; format: in vivo; settings: 23 hour and 1 week observation
# Excerpt: as §1
# Objective - To block the contact irritant dermatitis observed following application of guanfacine patches to the skin through the incorporation of hydrocortisone in the patch. Materials - Two formulations of the antihypertensive drug guanfacine were used in this study. Into each was incorporated hydrocortisone at either 0.5% or 2.0%. Control patches containing no hydrocortisone were also used. Thus, the following formulations were prepared: […]
# (To make the 0.5% hydrocortisone formulations, 20 mg hydrocortisone was added to 4 grams of the above formulations. To make 2.0% hydrocortisone formulations, 80 mg of hydrocortisone was added to 4 grams of the above two formulations). Methods - Three patches of each of the two guanfacine formulations, containing either 0%, 0.5% or 2.0% hydrocortisone, were applied to the upper arm of a single human subject not previously exposed to this drug. The patches were removed after 23 hours and the sites observed for signs of dermatitis. One week later, the sites were again observed.
# [6] = test system: guinea pig skin; settings: compared with indomethacin; cited from earlier work
# [7] = test system: rat footpad; settings: applied topically to rat footpad; cited from earlier work
# [8] = test system: cyclooxygenase; settings: cited from earlier work
# [9] = test system: prostaglandin E2; settings: cited from earlier work
# [10] = test system: leukotriene C4; settings: cited from earlier work
structure (smiles),measurement,setting,value
CC(=O)OCC(=O)[C@@]12OC(C)(C)O[C@@H]1C[C@H]1[C@@H]3C[C@H](F)C4=CC(=O)C=C[C@]4(C)[C@@]3(F)[C@@H](O)C[C@@]12C [fluocinonide],irritant dermatitis associated with the use of RO 22-1327,[1],significant reduction
same,allergic reaction (erythema and blistering) caused by fluphenazine,[2],almost completely blocked
same,allergic reaction (erythema and blistering) caused by clonidine,[3],significantly reduced
same,magnitude of the allergic reaction (erythema and blistering) caused by trifluoperazine,[4],significantly reduced
C[C@]12CCC(=O)C=C1CC[C@@H]1[C@@H]2[C@@H](O)C[C@@]2(C)[C@H]1CC[C@]2(O)C(=O)CO [hydrocortisone],adverse reactions (irritant dermatitis),[5]; 0.5% hydrocortisone guanfacine patches,variable
same,adverse reactions (irritant dermatitis),[5]; 2.0% hydrocortisone guanfacine patches,No adverse reactions
"COc1cc(-c2nc3ncccc3o2)cc(C(C)(C)C)c1 [2-(3-(1,1-dimethylethyl)5-methoxyphenyl-oxazolo(4,5-b)pyridine]",inhibiting ultra-violet light-induced erythema,[6],as potent as indomethacin
same,analgesic effect,[7],effective analgesic
same,cyclooxygenase inhibition,[8],inhibitor
same,inhibition of prostaglandin E2 synthesis,[9],inhibitor
same,inhibition of leukotriene C4 synthesis,[10],not
